Paper PMC5640650, “NatD promotes lung cancer progression by preventing histone H4 serine phosphorylation to activate Slug expression” (Nature Communications, 2017)

How the values were obtained:
Assay type in all cases: cell-based, human
H1299 cells [1] = assay: Wound healing assay, H1299 cells; settings: vs Scr
Source text: (§1) Fig. 2 NatD is required for lung cancer cell migration and invasion in vitro. a Quantitative real-time PCR analysis of NatD mRNA levels normalized to GAPDH in scrambled control cells (Scr) and NatD-KD1 and NatD-KD2 cells. Results are shown as mean ± s.d. from three independent experiments. Two-tailed Student’s t-test was used. **P < 0.01 compared to Scr control. b Western blot analysis of NatD and Nt-ac-H4 protein levels in scrambled, NatD-KD1, and NatD-KD2 cells. GAPDH and histone H4 served as loading controls. Blots are representative of three independent experiments. c Representative images from wound healing assay of scrambled, NatD-KD1, and NatD-KD2 cells from three independent experiments (left panels). Wound healing assay results are quantified in the histogram (right panel). […] Cell migration and invasion are expressed as a percentage of control (bottom panel). […]
The in vitro viability of H1299 cells was assessed using the Cell Counting Kit-8 (CCK-8, Dojindo, Japan) according to the manufacturer’s protocol. Flow cytometric analysis of apoptosis was assessed by Annexin V and PI staining using the Annexin V-APC Apoptosis Detection Kit (KeyGEN BioTECH, China) according to the manufacturer’s guide. […] The samples were analyzed by flow cytometry (Becton Dickinson, NJ, USA), and results were analyzed with FlowJo software according to the manufacturer’s instructions. […]

A549 cells = assay: Transwell migration and invasion assay, A549 cells; settings: vs Scr
Method: The in vitro viability of H1299 cells was assessed using the Cell Counting Kit-8 (CCK-8, Dojindo, Japan) according to the manufacturer’s protocol. Flow cytometric analysis of apoptosis was assessed by Annexin V and PI staining using the Annexin V-APC Apoptosis Detection Kit (KeyGEN BioTECH, China) according to the manufacturer’s guide. For cell cycle analysis, cells were harvested and fixed at 4 °C overnight with 70% ethanol. Cells were washed twice with PBS, and their DNA was stained using a Cell Cycle Detection Kit (KeyGEN BioTECH, China). The samples were analyzed by flow cytometry (Becton Dickinson, NJ, USA), and results were analyzed with FlowJo software according to the manufacturer’s instructions. For the wound healing assay, cells were plated to confluence in a 6-well plate, and the cell monolayer was scratched using a pipette tip. Representative photos were taken using a digital camera mounted on an inverted microscope (Olympus) at indicated times. Live cell imaging was performed using the HoloMonitor M4 time-lapse cytometer (Phase Holographic Imaging, Sweden). […]
of A549 cells. […] (bottom) Quantification of cell migration and invasion expressed as a percentage of Scr control; mean ± s.d. from three independent experiments; two-tailed Student’s t-test, **P<0.01 compared to Scr control. […]

H1299 cells [2] = assay: Transwell migration and invasion assay, H1299 cells; settings: 12 h, knockdown vs Scr
Source text: as §1, with “Blots are representative of three independent experiments. c Representative images from wound healing assay of scrambled, NatD-KD1, and NatD-KD2 cells from three independent experiments (left panels).” left out
Fig. 5 Regulation of Slug by NatD is acetyltransferase activity-dependent. a (left) In vitro acetylation assay showing the catalytic activity of NatDΔ and wild-type NatD (CPM, counts per minute). […] (bottom) Histones shown by Coomassie blue staining. d Quantitative real-time PCR analysis of mRNA levels of Slug, E-cadherin, N-cadherin, and Vimentin normalized to GAPDH in H1299 cells overexpressing NatDΔ or wild-type NatD. […] Cell migration and invasion are expressed as a percentage of control (bottom panel). […]
The in vitro viability of H1299 cells was assessed using the Cell Counting Kit-8 (CCK-8, Dojindo, Japan) according to the manufacturer’s protocol. […]

Substance	migration in wound healing assay (H1299 cells [1])	cell migration and invasion (transwell) (A549 cells)	migratory and invasive capabilities (transwell) (H1299 cells [2])
NatD-KD1: Human NatD shRNA KD1: 5′-GATGAAGAAGGTTATGTTA-3′, lentiviral (shRNA, lentiviral)	migrated significantly more slowly	inhibits cell migration and invasion	significantly reduced
NatD-KD2: Human NatD shRNA KD2: 5′-GGTTGAATGTCTCCATTGA-3′, lentiviral (shRNA lentiviral)	migrated significantly more slowly	inhibits cell migration and invasion	significantly reduced
